Experimental data taken from patent publication US7456292B2, “Hydroxamic acid-containing amino acid derivatives” (Bexel Pharmaceuticals, Inc., priority 2005, dated 2008).
Structures can show the parent of a compound that is named as a salt.

Assays:
[1] = tested on: Collagen Induced Arthritis Model; assay: Collagen induced arthritis model; format: in vivo; conditions: male DBA/1 Lac mice, oral 50 mg/kg daily
Description: Arthritis induced in male DBA/1 Lac mice with bovine collagen (100 μg/mouse). Booster dose was given on Day 21 and started treatment when clinical score was about 2. […] Dexamethasone was kept as positive control. Severity of each paw score was defined from 0=no erythma to 4=severe arthritis for the swollen paws with a maximum possible score of 16 for 4 paws (4×4) in one animal.

TNF-α [2] = assay: LPS induced sepsis model in mice, serum TNF-α; format: in vivo; conditions: Mus musculus, SW mice, serum after 90 min
Description: (§1) SW mice were orally treated with vehicle, dexamethasone (5 mg/kg) and compounds at a dose of 50 mg/kg body weight one hour before LPS injection (10 μg/mouse, ip) and blood was collected after 90 min and measured serum TNF-α and IL-6 levels by ELISA.

TNF-α [3] = assay: LPS induced TNF-α in THP-1 monocytic cells; format: cell-based; conditions: Homo sapiens, LPS 1 μg/mL 24 hours
Description: (§2) Human THP-1 monocyte cells were cultured and incubated with compounds at different concentrations. Cells were then challenged with lipopolysaccharides (LPS) at a concentration of (1 μg/mL) for 24 hours. Cell supernatants were then analyzed for the presence of TNF-α cytokines by antibody directed enzyme-linked immunoassay from R & D System, Minneapolis, USA.

TNF-α [4] = assay: LPS induced TNF-α in hPBMC; format: cell-based; conditions: Homo sapiens, read-out: Inhibition (%) TNF-α
Description: as §2, with “PBMC” for “THP-1”, “TNF-α, IL-6 and IL-1β” for “TNF-α”, “immunoassay. Dexamethasone was used as a positive control in the experiments.” for “immunoassay from R & D System, Minneapolis, USA.”

[5] = tested on: carrageenan induced paw inflammation; assay: Carrageenan induced inflammation in rats; format: in vivo; conditions: Sprague-Dowley rats, 50 mg/kg oral, paw volume after 2 and 3 hours
Description: Sprague-Dowley rats with average weight of 250 g (6-7 weeks of age) were randomized in three groups, and given 50 mg/kg oral dose of compound of example 6. Thirty minutes later carrageenan was administered in the sub-planter region of right hind paws. The control group received equal volume of water without any compound. Paw volume was measured after 2 and 3 hours. Dexamethasone at a concentration of 5 mg/kg was used as a positive control in this experiment.

gamma interferon = assay: Myelin basic protein (MBP) induced gamma interferon in lymph node cultures; format: cell-based; conditions: MBP stimulated lymph node cells of SJL mice, 72 h, ELISA
Description: (§3) FIG. 6: Inhibition of myelin basic protein (MBP) induced […] mice were immunized with 400 μg of myelin basic protein (MBP) in CFA on day 0 and 7 and regional lymph nodes were harvested on day 14 and cultured with MBP in the presence or absence of compound 22 for 72 h. Lymphocyte proliferation was determined by thymidine incorporation assay. Cell culture supernatants from MBP stimulated and compound 22 treated cells were assayed for gamma interferon using ELISA.

Lymphocyte proliferation = assay: MBP induced lymphocyte proliferation (thymidine incorporation); format: cell-based; conditions: MBP stimulated lymph node cells of SJL mice, 72 h
Description: as §3

IL-12 (p40) = assay: CD40 ligand-mediated synthesis of IL-12 (p40) in mouse peritoneal macrophages; format: cell-based; conditions: mouse peritoneal macrophages stimulated with 2 μg/mL soluble CD40 ligand
Description: To further confirm the inhibition of IL-12 secretion mediated by CD40, induction of IL-12 (p40) was examined following activation of macrophages by soluble CD40 ligand, CD 154. Mouse peritoneal macrophages, were stimulated with 2 μg/mL of soluble […] (Immunex) in the presence of compound 22.

[6] = tested on: intestinal bowel disease (IBD) induced by dextran sodium sulphate (DSS); assay: DSS induced inflammatory bowel disease in mice; format: in vivo; conditions: male SW mice, 4% DSS, daily dose 50 mg/kg body weight in PEG400
Description: DAI is comprised of factors such as body weight, stool quality and occult blood content. A 4% solution of DSS was provided as drinking water and DAI was monitored twice a week for the induction of disease. Following this the animals were treated with a daily dose 50 mg/kg body weight of compound 22 in PEG400 formulations and the activity index was monitored twice a week.

IL-6 [7] = assay: LPS induced sepsis model in mice, serum IL-6; format: in vivo; conditions: Mus musculus; SW mice, oral 5 mg/kg bw one hour before LPS, serum after 90 min
Description: as §1

IL-1β = assay: LPS induced IL-1β in hPBMC; format: cell-based; conditions: Homo sapiens, LPS 1 μg/mL 24 hours
Description: as §2, with “PBMC” for “THP-1”, “TNF-α, IL-6 and IL-1β” for “TNF-α”, “immunoassay. Dexamethasone was used as a positive control in the experiments.” for “immunoassay from R & D System, Minneapolis, USA.”

IL-6 [8] = assay: LPS induced IL-6 in hPBMC; format: cell-based; conditions: Homo sapiens, LPS 1 μg/mL 24 hours
Description: as §2, with “PBMC” for “THP-1”, “TNF-α, IL-6 and IL-1β” for “TNF-α”, “immunoassay. Dexamethasone was used as a positive control in the experiments.” for “immunoassay from R & D System, Minneapolis, USA.”

T cell proliferation = assay: Inhibition of T cell proliferation; format: cell-based, mice
Description: SJL mice were immunized with keyhole limpet hemocyanin (KLH) in complete Freund's adjuvant (CFA). 12 days later regional lymph nodes were isolated and a proliferative response to KLH in the presence or absence of drug was performed (in presence of 3H thymidine). The results are expressed at Stimulation index (CPM+antigen/CPM no antigen). Similarly, mitogen induced concanavalin A (CON-A), IL-4, IL-2 induced T cell proliferation was measured in presence of compounds are shown in Table VI.

IL-12 = IL-12 secretion following LPS stimulation of mouse spleenic macrophages; format: cell-based; conditions: mouse splenic macrophages stimulated with LPS for 72 hrs
Text: Compound 6 of this class inhibited IL-12 production in mouse splenic macrophages stimulated with LPS for 72 hrs.

[9] = hPBMC, 10 μM, LPS 1 μg/mL 24 hours, * average of two experiments

With `Cl.NC(Cc1ccc(Oc2ccc(C(=O)NO)cc2)cc1)C(=O)O` (stereo not shown) [Compound 9, 2-amino-3-[4-(4-hydroxycarbamoyl-phenoxy)-phenyl]-propionic acid hydrochloric acid salt] the arthritic scores [1] was “significantly improved the arthritic scores”, the inhibition at 50 mg/kg (TNF-α [2]; oral 50 mg/kg body weight one hour before LPS) was 45% and the inhibition at 10 µM (TNF-α [3]) was 20%.

In the case of `Cc1ccc(S(=O)(=O)NC(Cc2ccc(Oc3ccc(C(=O)NO)cc3)cc2)C(=O)N(C)C)cc1` (stereo not shown) [Compound 14, 4-{4-[2-Dimethylcarbamoyl-2-(toluene-4-sulfonylamino)-ethyl]-phenoxy}-N-hydroxy-benzamide], the inhibition at 10 µM (TNF-α [4]; [9]) is reported as 22%.

With `CC(C)OC(=O)C(N)Cc1ccc(Oc2ccc(C(=O)O)cc2)cc1` (stereo not shown) [Compound 15, 4-[4-(2-Amino-2-isopropoxycarbonylethyl)-phenoxy]-benzoicacid] the inhibition at 10 µM (TNF-α [4]; [9]) was 40.1%.

With `CC(C)OC(=O)C(N)Cc1ccc(Oc2ccc(C(=O)NO)cc2)cc1` (stereo not shown) [Compound 16, 2-Amino-3-[4-(4-hydroxycarbamoylphenoxy)-phenyl]-propionic acid isopropyl ester] the inhibition at 10 µM (TNF-α [4]; [9]) was 69.2% and the “inflammation induced by carrageenan (paw volume)” value [5] was “substantially lower the inflammation induced by carrageenan”.

Compound `CN(C)C(=O)[C@@H](N)Cc1ccc(Oc2ccc(C(=O)NO)cn2)cc1` [Compound 21, L-6-[4-(2-amino-2-dimethylcarbamoyl-ethyl)-phenoxy]-N-hydroxy-nicotinamide hydrochloride] has an inhibition at 10 µM (TNF-α [4]; [9]) of 36.1%.

With `NC(Cc1ccc(Oc2ccc(C(=O)NO)cc2)cc1)C(=O)[O-].[Na+]` (stereo not shown) [Compound 22, 2-amino-3-[4-(4-hydroxycarbamoyl-phenoxy)-phenyl]-propionic acid sodium salt] the gamma interferon levels (gamma interferon) was “decrease in gamma interferon levels”, the arthritic scores [1] was “significantly improved the arthritic scores” and the “T cell proliferative response” value (Lymphocyte proliferation) was “normal T cell proliferative response”. The “inhibition of IL-12 (p40)” value (IL-12 (p40)) was “prominent inhibition of IL-12”, the inhibition at 10 µM (TNF-α [4]; 24 h) was 40% and the “disease activity index (DAI)” value [6] was “lowering of disease activity index”.

`C[C@@H]1C[C@H]2[C@@H]3CCC4=CC(=O)C=C[C@]4(C)[C@@]3(F)[C@@H](O)C[C@]2(C)[C@@]1(O)C(=O)CO` [Dexamethasone, reference compound] showed an inhibition at 5 mg/kg (IL-6 [7]) of 50%, an inhibition at 10 µM (IL-1β) of 26% and an inhibition at 5 mg/kg (TNF-α [2]; oral 5 mg/kg bw one hour before LPS) of 70%. The inhibition at 10 µM (TNF-α [4]; [9]) was 42%, the inhibition at 10 µM (IL-6 [8]) was 14% and the inhibition at 10 µM (TNF-α [3]) was 70%.

`CS(=O)(=O)c1ccc(C2=C(c3ccccc3)C(=O)OC2)cc1` [rofecoxib, reference compound] was tested, and the “effect on T cells (proliferation)” value (T cell proliferation) was “did not show any effect on T cells” and the IL-12 production (IL-12) was “no effect was observed”.
